Test results taken from patent US20260265189A1, “NOVEL COMPOUND, AND PHARMACEUTICAL COMPOSITION COMPRISING SAME AS ACTIVE INGREDIENT” (SAPIENSBIO INC., priority 2022, published 2026).

Columns and labels:
[1] = tested on: IL-6 secretion by M1 macrophages derived from THP-1; assay: IL-6 secretion by LPS-activated THP-1-derived M1 macrophages (cytometric bead array); assay type: cell-based, human; conditions: LPS 10 ng/mL 6 hours, compound 1 μM or 10 μM, FIG. 3
Experimental: IL-6 is one of the pro-inflammatory cytokines secreted by activated macrophages, M1 macrophages, and is a potent trigger of fibrosis. Therefore, to evaluate the inhibitory activity of the compounds according to the present invention to inhibit pulmonary fibrosis through the inhibition of inflammatory effects, the extent of IL-6 secretion by macrophages after treatment of activated macrophages with the compounds was compared.
First, macrophages were prepared through the following process: 1 mL of a medium containing 5×10^5 cells/mL of THP-1 cells (Korean Cell Line Bank; KCLB NO. 40202) grown in a complete medium (a medium in which Roswell Park Memorial Institute [RPMI] is supplemented with 10% [vol/vol] fetal bovine serum [FBS] and 1% [vol/vol] penicillin/streptomycin [P/S]) was dispensed by 1 mL into each well of a 12-well plate. […]
Subsequently, the measurement of a cytokine level was performed through the following process: the secured complete medium was centrifuged at 13,000 RPM for 10 minutes in a 4° C. centrifuge, and then a supernatant was transferred to a new 1.5 mL microcentrifuge tube. […] The amount of IL-6 binding to the beads was measured using a Novocyte 3000 flow cytometer (Agilent).

α-SMA in MRC5 cells = assay: inhibition of α-SMA formation in TGF-β1-treated MRC5 cells (confocal imaging); assay type: cell-based, human; conditions: TGF-β1 5 ng/mL, 70 hours; for intracellular α-SMA formation: MRC5, compound 10 μM, FIGS. 2A, 2B
Experimental: (§1) It is known that when the process of pulmonary fibrosis results in structural changes in cells, the level of F-actin increases. Therefore, to confirm the therapeutic efficacy of the compounds of the present invention for pulmonary fibrosis-related diseases, the structural changes of cells after treating fibrosis-induced MRC5 with the compounds of the present invention were measured by the degree of inhibition of F-actin and α-SMA formation.
(§2) Specifically, MRC5 cells were treated with Compound 32 (10 μM) or Compound 42 (10 μM) according to the present invention, CK-666 (actin polymerization inhibitor, 10 μM), nintedanib (1 μM), or DMSO, which had been dissolved in a 0.5% fetal bovine serum (FBS)-containing medium, and 2 hours later, the cells were treated with TGF-β1 (5 ng/mL) to cause fibrosis. Due to strong cytotoxicity of the drug of nintedanib, all cells die when treated with nintedanib at the same concentration (10 μM) as that of the compound of the present invention, so it is impossible to conduct a comparative experiment. Therefore, the effect was confirmed by treating the cells with 1 μM nintedanib. 70 hours later, the cells were fixed with a 2% paraformaldehyde solution for 10 minutes, treated with a 0.1% Triton X-100 solution for 10 minutes to provide cell membrane permeability, and treated with a 1% bovine serum albumin (BSA) solution to prevent non-specific binding. […] High-resolution F-actin images acquired with a STELLARIS 5 confocal microscope (Leica) were quantitatively represented by standardizing F-actin stained with rhodamine phalloidin using Alexa Fluor™ Plus 488-labeled GAPDH using self-developed analysis software through programming. […] High-resolution α-SMA images acquired with a STELLARIS 5 confocal microscope (Leica) were quantitatively represented by standardizing α-SMA stained with an anti-α-SMA-FITC antibody with Alexa Fluor™ Plus 488-labeled GAPDH using self-developed analysis software through programming.

F-actin in MRC5 cells = assay: inhibition of F-actin formation in TGF-β1-treated MRC5 cells (confocal imaging); assay type: cell-based, human; conditions: TGF-β1 5 ng/mL, 70 hours; for intracellular F-actin formation: MRC5, compound 10 μM, FIGS. 2C, 2D
Experimental: as §1, §2

[2] = tested on: α-SMA expression in MRC5 cells; assay: inhibition of α-SMA expression in MRC5 cells, image screening method; assay type: cell-based; conditions: Homo sapiens; MRC5, compound 10 μM, TGF-β1 5 ng/mL, 72 hours, relative to TGF-β1 alone; read-out: Inhibitory activity (α-SMA expression inhibition)
How it was run: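 MRC5 cells exposed to compound (10 μM) or DMSO with TGF-β1 (5 ng/mL) for 72 h, then fixed, permeabilised, blocked and immunostained for α-SMA (FITC) and GAPDH. Image-based quantitation; α-SMA level with compound plus TGF-β1 expressed relative to TGF-β1 alone.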

MRC5 cells = assay: cytotoxicity in MRC5 cells; assay type: cell-based, human; conditions: 10 μM
[3] = cited from earlier work
[4] = tested on: α-SMA expression in MRC5 cells; conditions: stated as known; cited from earlier work

Compound | IL-6 production [1] | intracellular α-SMA formation (α-SMA in MRC5 cells) | intracellular F-actin formation (F-actin in MRC5 cells) | inhibition at 10 µM [2] | effect of inhibiting α-SMA formation (α-SMA in MRC5 cells; MRC5, nintedanib 1 μM) | cytotoxicity (MRC5 cells) | F-actin formation (F-actin in MRC5 cells; MRC5, nintedanib 1 μM) | therapeutic effect ([3]; IPF treatment, stated as known) | lung function improvement ([3]; clinical use as therapeutic drug for pulmonary fibrosis) | α-SMA inhibitory activity [4]
CC(C)CN1CCC(NC(=O)N2CCN(c3ccc(F)cc3)c3cc(F)ccc32)CC1 [Compound 32, 6-fluoro-4-(4-fluorophenyl)-N-(1-isobutylpiperidin-4-yl)-3,4-dihydroquinoxaline-1(2H)-carboxamide] | decrease | decreased to a level similar to that in the group not treated with TGF-β1 | decreased to a level similar to that in the group not treated with TGF-β1 | ≥ 70% |  |  |  |  |  | 
CC(C)N1CC(NC(=O)N2CCN(c3ccc(F)cc3)c3cc(F)ccc32)C1 [Compound 42, 6-fluoro-4-(4-fluorophenyl)-N-(1-isopropylazetidin-3-yl)-3,4-dihydroquinoxaline-1(2H)-carboxamide] | decrease | decreased to a level similar to that in the group not treated with TGF-β1 | decreased to a level similar to that in the group not treated with TGF-β1 | 50 to 70% |  |  |  |  |  | 
COC(=O)c1ccc2c(c1)NC(=O)/C2=C(\Nc1ccc(N(C)C(=O)CN2CCN(C)CC2)cc1)c1ccccc1 [nintedanib] |  |  |  |  | lower than Compounds 32 and 42 | all cells die | did not inhibit | 10% | about 10% | 0%
